One assay deals with interferon (α). Nature of the assay: Cytokine induction in human cells: interferon secreted by PBMCs, ELISA. The format is cell-based. The note with it: PBMC, incubated 18 to 24 hours, interferon determined by ELISA, read-out: Lowest Effective Concentration (μM) Interferon. The source says:
(§1) An in vitro human blood cell system was used to assess cytokine induction by compounds of the invention. Activity is based on the measurement of interferon and tumor necrosis factor (α) (IFN and TNF, respectively) secreted into culture media as described by Testerman et. al. In “Cytokine Induction by the Immunomodulators Imiquimod and S-27609”, Journal of Leukocyte Biology, 58, 365-372 (September, 1995).
(§2) Whole blood is collected by venipuncture into EDTA vacutainer tubes from healthy human donors. Peripheral blood mononuclear cells (PBMCs) are separated from whole blood by density gradient centrifugation using Histopaque®-1077 (Sigma Chemicals, St. Louis, Mo.). The PBMCs are suspended at 3-4×10^6 cells/mL in RPMI 1640 medium containing 10% fetal bovine serum, 2 mM L-glutamine and 1% penicillin/streptomycin solution (RPMI complete). The PBMC suspension is added to 48 well flat bottom sterile tissue culture plates (Costar, Cambridge, Mass. or Becton Dickinson Labware, Lincoln Park, N.J.) containing an equal volume of RPMI complete media containing test compound.
(§3) The compounds are solubilized in dimethyl sulfoxide (DMSO). The DMSO concentration should not exceed a final concentration of 1% for addition to the culture wells.
(§4) The solution of test compound is added at 60 μM to the first well containing RPMI complete and serial (three fold or ten fold) dilutions are made. The PBMC suspension is then added to the wells in an equal volume, bringing the test compound concentrations to the desired range. The final concentration of PBMC suspension is 1.5-2×10^6 cells/mL. The plates are covered with sterile plastic lids, mixed gently and then incubated for 18 to 24 hours at 37° C. in a 5% carbon dioxide atmosphere.
(§5) Following incubation the plates are centrifuged for 5-10 minutes at 1000 rpm (˜200×g) at 4° C. The cell culture supernatant is removed with a sterile polypropylene pipet and transferred to sterile polypropylene tubes. Samples are maintained at −30 to −70° C. until analysis. The samples are analyzed for interferon (α) by either ELISA or bioassay and for tumor necrosis factor (α) by ELISA.
Interferon (α) concentration is determined by ELISA using a Human Multi-Species kit from PBL Biomedical Laboratories, New Brunswick, N.J.
(§6) The table below lists the lowest concentration found to induce interferon and the lowest concentration found to induce tumor necrosis factor for each compound. […] Unless otherwise indicated, the interferon biosynthesis was determined by ELISA.

Assay [1] has as its system tumor necrosis factor (α). Nature of the assay: Cytokine induction in human cells: tumor necrosis factor (α) secreted by PBMCs, ELISA. The note with it: PBMC, incubated 18 to 24 hours, TNF determined by ELISA, read-out: Lowest Effective Concentration (μM) Tumor Necrosis Factor. Format: cell-based.
Source text: as §1, §2, §3, §4, §5
Tumor necrosis factor (α) (TNF)concentration is determined using ELISA kits available from Genzyme, Cambridge, Mass.; R&D Systems, Minneapolis, Minn.; or Pharmingen, San Diego, Calif.
as §6

Where a name gives a salt, the structure may show the parent alone.

As for `COCCc1nc2c(N)nc3ccccc3c2n1CCCCNC(=O)C1CCCN1S(=O)(=O)c1ccc(C(C)(C)C)cc1` (stereo in doubt) [Example 185, N-{4-[4-amino-2-(2-methoxyethyl)-1H-imidazo[4,5-c]quinolin-1-yl]butyl}-1-[(4-tert-butylphenyl)sulfonyl]-L-prolinamide], the values for the minimal effective concentration (in the assay with interferon (α); in assay [1]) were 1.11 µM and 3.33 µM, respectively.

As for `Cc1nc2c(N)nc3ccccc3c2n1CCCCNC(=O)c1ccccc1` [Example 4, N^1-[4-(4-Amino-2-methyl-1H-imidazo[4,5-c]quinolin-1-yl)butyl]benzamide], the minimal effective concentration with interferon (α) was 0.04 µM; in assay [1], 0.37 µM.

On to `CCc1nc2c(N)nc3ccccc3c2n1CCCCNC(=O)c1ccccc1` [Example 5, N^1-[4-(4-Amino-2-ethyl-1H-imidazo[4,5-c]quinolin-1-yl)butyl]benzamide], for which the minimal effective concentration in the assay on interferon (α) worked out at 0.04 µM; in assay [1] it was 0.37 µM.

On to `CCCCc1nc2c(N)nc3ccccc3c2n1CCCCNC(=O)c1ccccc1` [Example 6, N^1-[4-(4-Amino-2-butyl-1H-imidazo[4,5-c]quinolin-1-yl)butyl]benzamide], for which the results for the minimal effective concentration (with interferon (α); in assay [1]) were 0.12 µM and 1.11 µM, respectively.

`Nc1nc2ccccc2c2c1ncn2CCCCCNC(=O)c1ccccc1` [Example 10, N^1-[5-(4-Amino-1H-imidazo[4,5-c]quinolin-1-yl)pentyl]benzamide Hydrochloride]: the minimal effective concentration in the assay with interferon (α) was 3.33 µM; in assay [1], > 30 µM.

Consider `Nc1nc2ccccc2c2c1ncn2CCCNC(=O)c1ccccc1` [Example 11, N^1-[3-(4-Amino-1H-imidazo[4,5-c]quinolin-1-yl)propyl]benzamide Hydrochloride], for which the values for the minimal effective concentration (with interferon (α); in assay [1]) were 1.11 µM and > 30 µM, respectively.

As to `CCOCc1nc2c(N)nc3ccccc3c2n1CCNC(=O)CCCCC1SCC2NC(=O)NC21` (centres unmarked) [Example 29, N^1-[2-(4-Amino-2-(ethoxymethyl)-1H-imidazo[4,5-c]quinolin-1-yl)ethyl]-5-(2-oxoperhydrothieno[3,4-d]imidazol-4-yl)pentanamide Ditrifluoroacetate], the minimal effective concentration was 0.12 µM in the assay with interferon (α) and > 30 µM in assay [1].

Consider `Nc1nc2ccccc2c2c1ncn2CCCCNC(=O)c1cccc2ccccc12` [Example 38, N^1-[4-(4-Amino-1H-imidazo[4,5-c]quinolin-1-yl)butyl]-1-naphthamide], for which the minimal effective concentration is 0.12 µM in the assay with interferon (α) and 3.33 µM in assay [1].

Take `Nc1nc2ccccc2c2c1ncn2CCCCNC(=O)c1cnc2ccccc2c1` [Example 40, N^3-[4-(4-Amino-1H-imidazo[4,5-c]quinolin-1-yl)butyl]-3-quinolinecarboxamide]: the minimal effective concentration in the assay with interferon (α) was 0.37 µM; in assay [1] it was 30 µM.

In the case of `Nc1nc2ccccc2c2c1ncn2CCCCNC(=O)c1ccco1` [Example 85], the minimal effective concentration was 1.11 µM with interferon (α) and 10 µM in assay [1].

Turning to `Nc1nc2ccccc2c2c1ncn2CCCCNC(=O)c1cccs1` [Example 86], the minimal effective concentration in the assay with interferon (α) came out at 1.11 µM; in assay [1], 10 µM.

As for `Nc1nc2ccccc2c2c1ncn2CCCCNC(=O)c1ccc([N+](=O)[O-])cc1` [Example 87], the minimal effective concentration with interferon (α) was found to be 3.33 µM; in assay [1] it was 30 µM.

Regarding `CC(=O)NCCCCn1cnc2c(N)nc3ccccc3c21` [Example 88], the figures for the minimal effective concentration (in the assay with interferon (α); in assay [1]) were 10 µM and > 30 µM, respectively.

With `Nc1nc2ccccc2c2c1ncn2CCCCNC(=O)c1cccc(Br)c1` [Example 89], the minimal effective concentration amounted to 1.11 µM in the assay on interferon (α) and 10 µM in assay [1].

With `Nc1nc2ccccc2c2c1ncn2CCCCNC(=O)C12CC3CC(CC(C3)C1)C2` [Example 90], the minimal effective concentration with interferon (α) worked out at 3.33 µM; in assay [1] it was 10 µM.

Take `Nc1nc2ccccc2c2c1ncn2CCCCNC(=O)C1(c2ccc(Cl)cc2)CCCC1` [Example 91]: the minimal effective concentration in the assay with interferon (α) is 3.33 µM; in assay [1], > 30 µM.

Regarding `C=CCCCCCCCCC(=O)NCCCCn1cnc2c(N)nc3ccccc3c21` [Example 92], the minimal effective concentration was 3.33 µM in the assay with interferon (α) and > 30 µM in assay [1].

For the compound `COc1cc(C(=O)NCCCCn2cnc3c(N)nc4ccccc4c32)cc(OC)c1OC` [Example 93], the values for the minimal effective concentration (in the assay with interferon (α); in assay [1]) were 1.11 µM and 30 µM, respectively.

As to `COC(=O)CCCCC(=O)NCCCCn1cnc2c(N)nc3ccccc3c21` [Example 95], the minimal effective concentration in the assay with interferon (α) worked out at 3.33 µM; in assay [1] it was 30 µM.

As to `Nc1nc2ccccc2c2c1ncn2CCCCNC(=O)c1ccc([N+](=O)[O-])o1` [Example 96], the minimal effective concentration in the assay on interferon (α) was 0.37 µM; in assay [1] it was 10 µM.

`Nc1nc2ccccc2c2c1ncn2CCCCNC(=O)c1cccnc1Cl` [Example 97]: the minimal effective concentration amounted to 0.12 µM with interferon (α) and 3.33 µM in assay [1].

Regarding `COc1ccc(CC(=O)NCCCCn2cnc3c(N)nc4ccccc4c32)cc1` [Example 98], the minimal effective concentration in the assay on interferon (α) stood at 1.11 µM; in assay [1], 10 µM.

Turning to `Nc1nc2ccccc2c2c1ncn2CCCCNC(=O)CC1CCCC1` [Example 99], the minimal effective concentration with interferon (α) came out at 0.37 µM; in assay [1], 3.33 µM.

Take `COC(=O)c1ccc(C(=O)NCCCCn2cnc3c(N)nc4ccccc4c32)cc1` [Example 100]: the minimal effective concentration in the assay on interferon (α) was 10 µM; in assay [1], 3.33 µM.

For the compound `COC(=O)CCCCCCCCC(=O)NCCCCn1cnc2c(N)nc3ccccc3c21` [Example 101], the figures for the minimal effective concentration (in the assay on interferon (α); in assay [1]) were 3.33 µM and > 30 µM, respectively.

Take `Nc1nc2ccccc2c2c1ncn2CCCCNC(=O)c1ccc(OC(F)(F)F)cc1` [Example 102]: the minimal effective concentration in the assay on interferon (α) is 3.33 µM; in assay [1] it was > 30 µM.

For the compound `Nc1nc2ccccc2c2c1ncn2CCCCNC(=O)c1ccc(CN2CCOCC2)cc1` [Example 103], the minimal effective concentration in the assay on interferon (α) was found to be 0.37 µM; in assay [1], 10 µM.

As for `Nc1nc2ccccc2c2c1ncn2CCCCNC(=O)c1ccc(CN2CCN(C(c3ccccc3)c3ccccc3)CC2)cc1` [Example 104], the minimal effective concentration (with interferon (α); in assay [1]) was > 30 µM each time.

Take `Nc1nc2ccccc2c2c1ncn2CCCCNC(=O)c1ccc(CNCc2ccncc2)cc1` [Example 105]: the minimal effective concentration in the assay with interferon (α) was determined as 0.12 µM; in assay [1] it was 10 µM.

Regarding `COc1ccccc1CCNCc1ccc(C(=O)NCCCCn2cnc3c(N)nc4ccccc4c32)cc1` [Example 106], the minimal effective concentration is 3.33 µM in the assay on interferon (α) and > 30 µM in assay [1].

With `CN(CCc1ccccn1)Cc1ccc(C(=O)NCCCCn2cnc3c(N)nc4ccccc4c32)cc1` [Example 107], the minimal effective concentration in the assay with interferon (α) was determined as 0.12 µM; in assay [1], 10 µM.

For `Nc1nc2ccccc2c2c1ncn2CCCCNC(=O)Cc1cccs1` [Example 108, N^1-(4-(4-Amino-1H-imidazo[4,5-c]quinolin-1-yl)butyl)-2-(2-thienyl)acetamide], the minimal effective concentration with interferon (α) is 0.12 µM; in assay [1] it was 10 µM.

With `Nc1nc2ccccc2c2c1ncn2CCCCNC(=O)CC(c1ccccc1)c1ccccc1` [Example 109], the minimal effective concentration (in the assay with interferon (α); in assay [1]) was > 30 µM each time.

For the compound `Nc1nc2ccccc2c2c1ncn2CCCCNC(=O)CC1C=CCC1` (centres unmarked) [Example 110], the minimal effective concentration with interferon (α) is 1.11 µM; in assay [1], 3.33 µM.

For `Nc1nc2ccccc2c2c1ncn2CCCCNC(=O)c1cc(Cl)cc(Cl)c1` [Example 111], the minimal effective concentration in the assay with interferon (α) was 1.11 µM; in assay [1] it was > 30 µM.

On to `N#CCC(=O)NCCCCn1cnc2c(N)nc3ccccc3c21` [Example 112], for which the minimal effective concentration in the assay on interferon (α) is 10 µM; in assay [1] it was > 30 µM.

Regarding `COC(=O)CCC(=O)NCCCCn1cnc2c(N)nc3ccccc3c21` [Example 113], the minimal effective concentration is 3.33 µM with interferon (α) and > 30 µM in assay [1].
